Data reported in PubChem BioAssay (NCI).
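Assay format: 96-well plates, 48-hour exposure. GI50 marks 50% less growth. At the TGI there is no net growth.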

Legend:
Experiment in all cases: DTP human tumour cell line panel, 48 h
[1] = tested on: NCI/ADR-RES ovarian
[2] = tested on: SK-OV-3 ovarian
[3] = tested on: SNB-19 CNS
[4] = tested on: SN12C renal
[5] = tested on: DU-145 prostate
[6] = tested on: LOX IMVI melanoma
[7] = tested on: T-47D breast
[8] = tested on: ACHN renal
[9] = tested on: PC-3 prostate
[10] = tested on: OVCAR-3 ovarian
[11] = tested on: MCF7 breast
[12] = tested on: HCT-116 colon
[13] = tested on: SK-MEL-28 melanoma
[14] = tested on: SF-295 CNS
[15] = tested on: MALME-3M melanoma
[16] = tested on: 786-0 renal
[17] = tested on: UO-31 renal
[18] = tested on: TK-10 renal
[19] = tested on: RXF 393 renal
[20] = tested on: CAKI-1 renal
[21] = tested on: OVCAR-8 ovarian
[22] = tested on: A498 renal
[23] = tested on: RPMI-8226 leukemia
[24] = tested on: HL-60(TB) leukemia
[25] = tested on: SF-539 CNS
[26] = tested on: HCT-15 colon
[27] = tested on: MDA-MB-468 breast
[28] = tested on: HS 578T breast
[29] = tested on: SK-MEL-5 melanoma
[30] = tested on: IGROV1 ovarian
[31] = tested on: KM12 colon
[32] = tested on: A549 NSCLC
[33] = tested on: NCI-H23 lung
[34] = tested on: HOP-92 NSCLC
[35] = tested on: EKVX NSCLC
[36] = tested on: SF-268 CNS
[37] = tested on: OVCAR-4 ovarian
[38] = tested on: SK-MEL-2 melanoma
[39] = tested on: MDA-MB-231 breast
[40] = tested on: UACC-62 melanoma
[41] = tested on: MDA-MB-435
[42] = tested on: M14 melanoma
[43] = tested on: HOP-62 NSCLC
[44] = tested on: OVCAR-5 ovarian
[45] = tested on: HCC-2998 colon
[46] = tested on: NCI-H226 lung
[47] = tested on: BT-549 breast
[48] = tested on: K-562 leukemia
[49] = tested on: CCRF-CEM leukemia
[50] = tested on: NCI-H522 lung
[51] = tested on: MOLT-4 leukemia
[52] = tested on: UACC-257 melanoma
[53] = tested on: U251 CNS
[54] = tested on: SNB-75 CNS
[55] = tested on: SR leukemia
[56] = tested on: COLO 205 colon
[57] = tested on: HT29 colon

In the case of `COc1ccc2c(c1)c(-c1cc3nc(-c4cn(C)c5ncccc45)cc(N)n3n1)cn2C`, the GI50 [1] is reported as 3.62 µM, the TGI [1] is reported as 23.5 µM and the GI50 [2] is reported as 4.65 µM. The TGI [2] was 33 µM, the GI50 [3] was 3.98 µM and the TGI [3] was 16.8 µM. It also gave a GI50 [4] of 5.18 µM, a TGI [4] of 18.2 µM and a GI50 [5] of 2.88 µM. For the same compound, the TGI [5] was 8.26 µM, the GI50 [6] was 1.79 µM and the TGI [6] was 3.31 µM. It also gave a GI50 [7] of 3.24 µM, a TGI [7] of 16.3 µM and a GI50 [8] of 2.09 µM. For the same compound, the TGI [8] was 4.24 µM, the GI50 [9] was 2.75 µM and the TGI [9] was over 100 µM. For the same compound, the GI50 [10] was 1.98 µM, the TGI [10] was 4.14 µM and the GI50 [11] was 2.27 µM. For the same compound, the TGI [11] was 5.91 µM, the GI50 [12] was 1.67 µM and the TGI [12] was 3.13 µM. It also gave a GI50 [13] of 1.64 µM, a TGI [13] of 3.02 µM and a GI50 [14] of 1.81 µM. The TGI [14] was 3.49 µM, the GI50 [15] was 1.74 µM and the TGI [15] was 3.17 µM. For the same compound, the GI50 [16] was 1.74 µM, the TGI [16] was 3.2 µM and the GI50 [17] was 1.85 µM. The TGI [17] was 4.57 µM, the GI50 [18] was 4.25 µM and the TGI [18] was 14.5 µM. For the same compound, the GI50 [19] was 1.66 µM, the TGI [19] was 3.21 µM and the GI50 [20] was 2.19 µM. The TGI [20] was 6.46 µM, the GI50 [21] was 3.17 µM and the TGI [21] was over 100 µM. The GI50 [22] was 14.8 µM, the TGI [22] was 34.8 µM and the GI50 [23] was 2.12 µM. The TGI [23] was 5.44 µM, the GI50 [24] was 2.17 µM and the TGI [24] was 5.1 µM. The GI50 [25] was 1.65 µM, the TGI [25] was 3.06 µM and the GI50 [26] was 1.76 µM. The TGI [26] was 3.6 µM, the GI50 [27] was 1.82 µM and the TGI [27] was 3.52 µM. For the same compound, the GI50 [28] was 2.09 µM, the TGI [28] was 6.27 µM and the GI50 [29] was 1.69 µM. It also gave a TGI [29] of 3.24 µM, a GI50 [30] of 2.06 µM and a TGI [30] of 4.64 µM. For the same compound, the GI50 [31] was 1.97 µM, the TGI [31] was 4.32 µM and the GI50 [32] was 3.37 µM. The TGI [32] was 13.8 µM, the GI50 [33] was 3.92 µM and the TGI [33] was 17.9 µM. For the same compound, the GI50 [34] was 1.61 µM, the TGI [34] was 3.82 µM and the GI50 [35] was 3.05 µM. The TGI [35] was 12.5 µM, the GI50 [36] was 2.64 µM and the TGI [36] was 8.65 µM. For the same compound, the GI50 [37] was 2.13 µM, the TGI [37] was 5 µM and the GI50 [38] was 2.83 µM. It also gave a TGI [38] of 8.59 µM, a GI50 [39] of 1.84 µM and a TGI [39] of 3.89 µM. The GI50 [40] was 1.61 µM, the TGI [40] was 3.02 µM and the GI50 [41] was 1.72 µM. The TGI [41] was 3.35 µM, the GI50 [42] was 1.8 µM and the TGI [42] was 3.44 µM. The GI50 [43] was 3.11 µM, the TGI [43] was 13.3 µM and the GI50 [44] was 4.76 µM. The TGI [44] was 18 µM, the GI50 [45] was 1.81 µM and the TGI [45] was 3.56 µM. It also gave a GI50 [46] of 2.36 µM, a TGI [46] of 6.92 µM and a GI50 [47] of 1.83 µM. For the same compound, the TGI [47] was 3.77 µM.
`Cn1cc(-c2cc3nc(-c4c[nH]c5ccc(Br)cc45)cc(N)n3n2)c2ccccc21` was tested, and the GI50 [48] was 2.29 µM, the TGI [48] was 5.94 µM and the GI50 [2] was 1.98 µM. For the same compound, the TGI [2] was 4.03 µM, the GI50 [3] was 1.67 µM and the TGI [3] was 3.09 µM. For the same compound, the GI50 [4] was 1.65 µM, the TGI [4] was 3.05 µM and the GI50 [5] was 1.92 µM. For the same compound, the TGI [5] was 3.75 µM, the GI50 [6] was 1.68 µM and the TGI [6] was 3.04 µM. The GI50 [8] was 1.69 µM, the TGI [8] was 3.13 µM and the GI50 [9] was 1.64 µM. It also gave a TGI [9] of 3.24 µM, a GI50 [49] of 2.67 µM and a TGI [49] of 9.34 µM. It also gave a GI50 [12] of 3 µM, a TGI [12] of over 100 µM and a GI50 [13] of 1.78 µM. It also gave a TGI [13] of 3.22 µM, a GI50 [15] of 1.66 µM and a TGI [15] of 3.01 µM. It also gave a GI50 [16] of 1.6 µM, a TGI [16] of 3.27 µM and a GI50 [17] of 1.43 µM. The TGI [17] was 2.73 µM, the GI50 [18] was 1.43 µM and the TGI [18] was 2.79 µM. For the same compound, the GI50 [20] was 1.5 µM, the TGI [20] was 3.06 µM and the GI50 [22] was 1.67 µM. It also gave a TGI [22] of 3.34 µM, a GI50 [23] of 2.73 µM and a TGI [23] of 7.93 µM. For the same compound, the GI50 [24] was 1.84 µM, the TGI [24] was 4.34 µM and the GI50 [25] was 1.66 µM. It also gave a TGI [25] of 3.07 µM, a GI50 [50] of 1.5 µM and a TGI [50] of 3.08 µM. It also gave a GI50 [26] of 1.43 µM, a TGI [26] of 2.79 µM and a GI50 [51] of 1.67 µM. The TGI [51] was 5.15 µM, the GI50 [27] was 1.49 µM and the TGI [27] was 3.01 µM. For the same compound, the GI50 [28] was 1.98 µM, the TGI [28] was 4.87 µM and the GI50 [29] was 1.71 µM. For the same compound, the TGI [29] was 3.15 µM, the GI50 [30] was 1.5 µM and the TGI [30] was 2.98 µM. The GI50 [32] was 1.53 µM, the TGI [32] was 3.45 µM and the GI50 [52] was 1.72 µM. It also gave a TGI [52] of 3.26 µM, a GI50 [53] of 1.72 µM and a TGI [53] of 3.27 µM. The GI50 [34] was 1.51 µM, the TGI [34] was 3.08 µM and the GI50 [36] was 1.89 µM. The TGI [36] was 4.43 µM, the GI50 [37] was 1.71 µM and the TGI [37] was 3.49 µM. For the same compound, the GI50 [54] was 1.32 µM, the TGI [54] was 3.11 µM and the GI50 [38] was 1.74 µM. It also gave a TGI [38] of 3.48 µM, a GI50 [39] of 1.77 µM and a TGI [39] of 3.17 µM. It also gave a GI50 [40] of 1.54 µM, a TGI [40] of 2.92 µM and a GI50 [41] of 1.71 µM. It also gave a TGI [41] of 3.09 µM, a GI50 [42] of 2.29 µM and a TGI [42] of 5.78 µM. The GI50 [44] was 1.62 µM, the TGI [44] was 3.26 µM and the GI50 [45] was 1.79 µM. For the same compound, the TGI [45] was 3.26 µM, the GI50 [55] was 1.65 µM and the TGI [55] was 5.28 µM. It also gave a GI50 [56] of 1.89 µM, a TGI [56] of 3.51 µM and a GI50 [57] of 1.66 µM. The TGI [57] was 3.08 µM, the GI50 [46] was 1.96 µM and the TGI [46] was 5.07 µM.
